# From paper PMC7044277 (Nature Communications, 2020)
# Several values for one entry are separate records, joined by “and”; a condition that tells them apart may be missing. Equal entries are not always repeated.
# Legend:
# Format in all cases: cell-based
# Parameters in all cases: GPCRome screening signal at PTGIR / GPCRome screening signal at PTH1R / GPCRome screening signal at PTH2R / GPCRome screening signal at QRFP / GPCRome screening signal at RXFP2 / GPCRome screening signal at RXFP3 / GPCRome screening signal at RXFP4 / GPCRome screening signal at S1PR2 / GPCRome screening signal at S1PR3 / GPCRome screening signal at S1PR4 / GPCRome screening signal at S1PR5 / GPCRome screening signal at SCTR / GPCRome screening signal at SSTR2 / GPCRome screening signal at SSSTR / GPCRome screening signal at SSTR4 / GPCRome screening signal at SSTR5 / GPCRome screening signal at SUCNR1 / GPCRome screening signal at TA1 / GPCRome screening signal at TAAR2 / GPCRome screening signal at TAAR5 / GPCRome screening signal at TAAR6 / GPCRome screening signal at TAAR8 / GPCRome screening signal at TACR1 / GPCRome screening signal at TACR2 / GPCRome screening signal at TACR3 / GPCRome screening signal at TBXA2R / GPCRome screening signal at TSHR / GPCRome screening signal at UTS2R / GPCRome screening signal at VIPR2 / GPCRome screening signal at GPR68 no V2 Tail / GPCRome screening signal at GRM2 / GPCRome screening signal at GRM3: reference not given here
# 320 non-olfactory GPCRs [1] = molecular target: T1, 320 non-olfactory GPCRs (Homo sapiens, UniProt Q9P1P5); details: receptor TAAR2
# T1 construct: expressed in transfected cells; host or cells: HTLA cells
# 320 non-olfactory GPCRs [2] = molecular target: T2, 320 non-olfactory GPCRs (Homo sapiens, UniProt Q8TDU9); details: receptor RXFP4
# T2 construct: expressed in transfected cells; host or cells: HTLA cells
# 320 non-olfactory GPCRs [3] = molecular target: T3, 320 non-olfactory GPCRs (Homo sapiens, UniProt Q96RI8); details: receptor TAAR6
# T3 construct: expressed in transfected cells; host or cells: HTLA cells
# 320 non-olfactory GPCRs [4] = molecular target: T4, 320 non-olfactory GPCRs (Homo sapiens, UniProt Q9H1C0); details: receptor GPR92
# T4 construct: expressed in transfected cells; host or cells: HTLA cells
# [5] = Fig_5f, single replicate values
# 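Wherever GPCRome agonism screen response is given: fold over basal response of each receptor without drug.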
# T4 sequence (Q9H1C0 whole entry): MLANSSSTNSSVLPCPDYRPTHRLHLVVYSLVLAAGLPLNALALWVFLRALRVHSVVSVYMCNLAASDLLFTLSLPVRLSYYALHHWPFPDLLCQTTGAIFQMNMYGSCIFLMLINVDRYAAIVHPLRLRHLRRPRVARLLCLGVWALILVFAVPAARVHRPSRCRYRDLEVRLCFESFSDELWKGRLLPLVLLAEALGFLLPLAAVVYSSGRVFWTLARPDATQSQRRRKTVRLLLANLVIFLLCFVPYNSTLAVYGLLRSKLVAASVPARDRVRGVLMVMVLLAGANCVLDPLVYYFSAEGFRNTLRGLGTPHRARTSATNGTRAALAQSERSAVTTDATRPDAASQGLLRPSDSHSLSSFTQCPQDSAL
# T1 sequence (Q9P1P5 whole entry): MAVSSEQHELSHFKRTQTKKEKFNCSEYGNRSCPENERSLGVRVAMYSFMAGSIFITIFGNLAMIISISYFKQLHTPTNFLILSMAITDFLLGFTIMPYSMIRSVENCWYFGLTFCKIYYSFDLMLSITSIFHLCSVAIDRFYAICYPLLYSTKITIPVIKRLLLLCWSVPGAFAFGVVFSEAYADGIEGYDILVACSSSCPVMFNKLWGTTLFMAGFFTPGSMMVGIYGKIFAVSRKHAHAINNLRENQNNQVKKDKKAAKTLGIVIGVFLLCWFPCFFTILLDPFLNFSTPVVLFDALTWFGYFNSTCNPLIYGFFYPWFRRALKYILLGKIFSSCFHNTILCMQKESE
# T2 sequence (Q8TDU9 whole entry): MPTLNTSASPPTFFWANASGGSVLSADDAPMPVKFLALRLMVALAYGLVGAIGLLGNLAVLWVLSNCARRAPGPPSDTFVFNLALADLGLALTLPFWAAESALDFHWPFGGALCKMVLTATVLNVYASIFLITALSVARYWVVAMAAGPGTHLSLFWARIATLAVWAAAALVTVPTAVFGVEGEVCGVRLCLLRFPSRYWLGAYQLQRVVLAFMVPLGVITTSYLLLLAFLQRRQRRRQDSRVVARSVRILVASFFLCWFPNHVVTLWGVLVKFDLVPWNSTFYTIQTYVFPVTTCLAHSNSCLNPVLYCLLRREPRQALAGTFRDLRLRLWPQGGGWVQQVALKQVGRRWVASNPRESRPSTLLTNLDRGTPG
# T3 sequence (Q96RI8 whole entry): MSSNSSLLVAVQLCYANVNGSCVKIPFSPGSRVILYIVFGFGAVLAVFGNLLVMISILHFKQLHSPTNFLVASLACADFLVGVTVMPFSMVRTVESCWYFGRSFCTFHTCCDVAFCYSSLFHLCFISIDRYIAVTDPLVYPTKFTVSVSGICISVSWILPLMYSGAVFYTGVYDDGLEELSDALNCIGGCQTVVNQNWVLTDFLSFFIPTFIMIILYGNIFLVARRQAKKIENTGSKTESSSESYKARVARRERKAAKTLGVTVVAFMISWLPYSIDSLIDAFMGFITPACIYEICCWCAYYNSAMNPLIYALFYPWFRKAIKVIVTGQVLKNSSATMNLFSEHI
GPCRome screening signal at TAAR2 (320 non-olfactory GPCRs [1]; [5]),GPCRome screening signal at RXFP4 (320 non-olfactory GPCRs [2]; [5]),GPCRome screening signal at TAAR6 (320 non-olfactory GPCRs [3]; [5]),GPCRome screening signal at GPR92 (320 non-olfactory GPCRs [4]; [5]),SMILES,"GPCRome agonism screen response (320 non-olfactory GPCRs [1]; replicate values, Fig_4g)","GPCRome agonism screen response (320 non-olfactory GPCRs [2]; replicate values, Fig_4g)","GPCRome agonism screen response (320 non-olfactory GPCRs [3]; replicate values, Fig_4g)","GPCRome agonism screen response (320 non-olfactory GPCRs [4]; replicate values, Fig_4g)"
1.515 and 0.6858 and 1.3165 and 0.7903,0.4319 and 1.123 and 0.5997 and 0.5278,0.9086 and 0.7284 and 0.9687 and 0.7288,0.9709 and 0.5547 and 0.5858 and 0.9422,CCOc1ccccc1CCC(C)NCC1(O)CCCCC1.Cl (racemic) [Fig_5f],,,,
,,,,CCOc1cccc2cc(C(C)NCC3(O)CCCCC3)oc12 (centres unmarked) [O4LE6],2.656 and 0.9121 and 0.6733 and 0.6661,0.5888 and 1.446 and 0.8124 and 1.384,1.686 and 0.9412 and 0.4865 and 0.01025,1.1613 and 0.7262 and 0.6248 and 2.678
